Measured values reported in patent publication US11422132B2, “Peptides and uses thereof for diagnosing and treating myasthenia gravis” (The Regents of the University of California, priority 2016, dated 2022).
“Also recorded” adds a separate entry of the source.

Tests used:
Format in all cases: binding, rat
mAb 198 = assay: Western blot of peptide-IChBD fusion proteins probed with mAb 198; settings: for mAb 198 binding compared to its binding to the human 39MIR: human 39MIR mutants, relative to human 39MIR
Source text: (§1) Chitin beads adsorbed with peptide-IChBD fusion proteins were run on an SDS-PAGE gel and transferred to a nitrocellulose membrane and assayed with the four mAbs.
(§2) Chitin beads adsorbed with peptide-IChBD fusion proteins were run on an SDS-PAGE gel and transferred to a nitrocellulose membrane and assayed with the five mAbs.
The Torpedo (SEQ ID NO:9) and human (SEQ ID NO:8) 39MIRs were made by joining the α(1-12), α(65-79), and α(110-115) segments of their respective a subunits with GS linkers. These two MIR mimics were expressed in E. coli as fusion proteins with an IChBD tag to permit peptide collection on chitin beads. These two peptides differ from each other by eight amino acids (FIG. 2). Both mimics were probed with mAb 198. mAb 198, which was derived from rats that had been immunized with human muscle AChR, is a MIR-directed mAb that binds mammalian as well as Torpedo MIR (13,21). It was also able to passively transfer EAMG to rats and binds to both native assembled AChR and to α-subunit fragments in Western blots (22,23). mAb 198 binds to the Torpedo and human MIR peptide mimics in Western blots (FIG. 3). However, mAb 198 binds to the Torpedo mimic about 50 times more strongly than to the human MIR mimic (FIG. 3).
(§3) To explore the effects of individual amino acid substitutions between the Torpedo and the human AChR MIR mimics, eight peptides were prepared, each with an amino acid substituted from the human sequence into the Torpedo sequence. The single amino acid substitutions in the Torpedo MIR were: N10K (SEQ ID NO:11), L12F (SEQ ID NO:12), R66K (SEQ ID NO:13), A70D (SEQ ID NO:14), I75V (SEQ ID NO:15), R79H (SEQ ID NO:16), D111Q (SEQ ID NO:17), and K115H (SEQ ID NO:18).

mAb 132A [1] = assay: Western blot of peptide-IChBD fusion proteins probed with mAb 132A; design: key to mAb 132A, fold-change in binding relative to Torpedo 39MIR: ‘—’ denotes no binding; settings: Table 3, single-substitution human 39MIR mutants
mAb 35 [2] = assay: Western blot of peptide-IChBD fusion proteins probed with mAb 35; design: key to mAb 35, fold-change in binding relative to Torpedo 39MIR: ‘—’ denotes no binding; settings: for mAb 35 binding, result in words: Western blot; for mAb 35, fold-change in binding relative to Torpedo 39MIR: Table 1, Western blot of FIG. 5, Torpedo 39MIR single mutants; for mAb 35 binding relative to binding to the Torpedo 39MIR: FIG. 5 Western blots, Torpedo 39MIR single mutants
Method: as §1, §2, §3

mAb 35 [3] = assay: as above; design: key to mAb 35, fold-change in binding relative to Torpedo 39MIR: ‘—’ denotes no binding; settings: for mAb 35, fold-change in binding relative to Torpedo 39MIR: Table 3, single-substitution human 39MIR mutants; for mAb 35 binding compared to the Torpedo 39MIR peptide: single point mutated human 39MIR peptides
mAb 132A [4] = assay: Western blot of peptide-IChBD fusion proteins probed with mAb 132A; settings: for mAb 132A binding relative to binding to the Torpedo 39MIR: FIG. 5 Western blots, Torpedo 39MIR single mutants; for mAb 132A, fold-change in binding relative to Torpedo 39MIR: Table 1, Western blot of FIG. 5, Torpedo 39MIR single mutants
Method: as §1, §2, §3

mAb 334 = assay: Western blot of peptide-IChBD fusion proteins probed with mAb 334; settings: for mAb 334 binding relative to Torpedo 39MIR: FIG. 5 Western blots, Torpedo 39MIR single mutants; for mAb 334, fold-change in binding relative to Torpedo 39MIR: Table 1, Western blot of FIG. 5, Torpedo 39MIR single mutants
Method: as §2, §3

[5] = Table 3, single-substitution human 39MIR mutants
[6] = Table 1, Western blot of FIG. 5, Torpedo 39MIR single mutants

Row | Sequence | mAb 198, fold-change in binding relative to Torpedo 39MIR (mAb 198; [5]) [fold-change] | mAb 198 binding, result in words (mAb 198; Western blot) | mAb 132A, fold-change in binding relative to Torpedo 39MIR (mAb 132A [1]) | mAb 35 binding, result in words (mAb 35 [2]) | mAb 35, fold-change in binding relative to Torpedo 39MIR (mAb 35 [3]) | mAb 132A binding, result in words (mAb 132A [4]; Western blot) | mAb 198 binding compared to its binding to the human 39MIR (mAb 198) [×] | mAb 35 binding compared to the Torpedo 39MIR peptide (mAb 35 [3]) | mAb 334 binding relative to Torpedo 39MIR (mAb 334) [×] | mAb 334, fold-change in binding relative to Torpedo 39MIR (mAb 334) [fold-change] | mAb 198, fold-change in binding relative to Torpedo 39MIR (mAb 198; [6]) [fold-change] | mAb 132A binding relative to binding to the Torpedo 39MIR (mAb 132A [4]) [×] | mAb 132A, fold-change in binding relative to Torpedo 39MIR (mAb 132A [4]) [fold-change] | mAb 35, fold-change in binding relative to Torpedo 39MIR (mAb 35 [2]) | mAb 35 binding relative to binding to the Torpedo 39MIR (mAb 35 [2]) [×]
1 | SEHETRLVAKLFGGGSLKWNPADYGGVKKIHGSLQYTGH (synthetic main immunogenic region (MIR) peptide) [Mutant D70A, Human 39MIR single mutant (D70A)] | 0.02 | comparable to binding to human 39MIR | — | failed to restore mAb 35 binding | — |  |  |  |  |  |  |  |  |  | 
2 | SEHETRLVAKLFGGGSLKWNPDDYGGVKKIHGSLDYTGH [rat 39 MIR] (synthetic main immunogenic region (MIR) peptide) [Mouse 39MIR; rat/mouse 39MIR homolog] |  |  |  | did not bind |  | did not bind |  |  |  |  |  |  |  |  | 
3 | SEHETRLVAKLFGGGSLKWNPDDYGGVKKIHGSLDYTGH [Q111D] (synthetic main immunogenic region (MIR) peptide) [Mutant Q111D, Human 39MIR single mutant (Q111D)] | 0.59 |  | — | restored mAb 35 binding | 0.06 fold-change |  | 35.7 | 0.06 |  |  |  |  |  |  | 
4 | SEHETRLVANLLGGGSLRWNPADYGGIKKIRGSLDYTGH (synthetic main immunogenic region (MIR) peptide) [Mutant K115H, Torpedo 39MIR single mutant (K115H)] |  |  |  | did not bind; also recorded: completely abolished |  |  |  |  | 0.42 | 0.42 | 1.07 | 0.40 | 0.40 | — | 
5 | SEHETRLVANLLGGGSLRWNPDDYGGIKKIRGSLDYTGK (synthetic main immunogenic region (MIR) peptide) [Mutant A70D, Torpedo 39MIR single mutant (A70D)] |  |  |  |  |  |  |  |  | 1.04 | 1.04 | 1.08 | 0.20 | 0.20 | 0.93 fold-change | 0.93
6 | SEHETRLVANLLGGGSLRWNPADYGGIKKIHGSLDYTGK (synthetic main immunogenic region (MIR) peptide) [Mutant R79H, Torpedo 39MIR single mutant (R79H)] |  |  |  |  |  |  |  |  | 2.40 | 2.40 | 0.97 | 1.65 | 1.65 | 1.91 fold-change | 1.91
7 | SEHETRLVANLFGGGSLKWNPDDYGGVKKIHGSLQYTGH (synthetic main immunogenic region (MIR) peptide) [Mutant K10N, Human 39MIR single mutant (K10N)] | 0.23 |  | — | restored mAb 35 binding | 0.01 fold-change |  | 13 | 0.01 |  |  |  |  |  |  | 
